Results: patent US8871900B2, “Fibroblast growth factor (FGF) analogs and uses thereof” (University of Rochester, priority 2008, dated 2014)

What was measured:
[1] = test system: proliferating crypts of small intestine; test: Crypt assay of small intestine after sub-TBI (H&E, BrdU, villi length); assay type: in vivo, mouse (Balb/c, C57BL/6); details: Balb/c
Source text: Enhanced proliferation of crypts in small intestine: The epithelium of the small intestine has a rapid turnover, renewing every 3-7 days. The stem cells are located ⅓ of the way up the […] and active mitosis can be seen above growing into the villus and below, forming the crypt. There are no definitive markers available to identify the stem cells, and thus the number of these cells in each crypt are unknown. When the bowel is irradiated, the number of crypts remains constant up to a dose just below the LD50/7. Above that dose, there is a log-linear decrease in the number of crypts, usually measured at 3.5 days. […] Data from the crypt assay can be augmented with injection of BrdU. BrdU can be given to animals at one or more times after irradiation to determine the rate of proliferation and rate of elongation of villi.
FGF-P was then repeated daily for 2 days. At 80 hr post-IR, BrdU (120 mg/kg) was injected ip and 4 hours later (about 3.5 days post-IR), the mice were sacrificed and the duodenal, jejunal and ileal segments (3-4 pieces/segment) were harvested, fixed in formalin, processed in paraffin blocks, cut in transverse sections of the full segment circumference (5 μm thick) and stained with H&E or anti-BrdU following the standard immunochemistry procedure (23). The proliferating crypts were defined as containing 10 or more adjacent chromophilic non-Paneth cells and a lumen. The circumference of a transverse cross-section of the intestine was used as a unit. The number of proliferating crypts was counted in each circumference. At least 10 circumferences were scored per mouse and 4-5 mice were used to generate each data point.
The villi length of duodenum, jejunum and ileum was measured using a customized Imaging Pro program.

[2] = Stool hemoccult score after sub-TBI; assay type: in vivo, mouse (Balb/c, C57BL/6); details: Balb/c, 12.5 Gy sub-TBI; FGF-P 2 mg/kg im 15 min post irradiation; Amifostine iv 30 min pre-irradiation; P<0.05
Source text: There are commonly employed assays known to be relevant to both mouse and man for determining relative endpoints. These include: 1) stool blood: mucosal barrier breakdown is associated with bleeding of the small bowel; therefore, a hemoccult analysis with a commercial kit (BD Cat #64151) was used in the preliminary data at 3 days after sub-TBI. The time course and frequency of GI bleeding; 2) stool formation: the GI functions of digestion, absorption of nutrition and water, and the regular movement of intestinal muscle are required for formation of normal stool can be measured. All these functions can be upset by radiation. For example, loss of villi leads to decreased fluid absorption and diarrhea. The colon was excised and examined visually for the presence of formed stool at 3.5 days post-IR; 3) endotoximia: bacterial translocation can occur at early times following gastrointestinal radiation exposure.
2) A standard scoring scale was used to evaluate stool formation (diarrhea). The bowel was extracted from the abdomen and visually inspected. Formed stool was easily distinguished from semi-solid and liquid stool as it passed from the ascending to descending colon. FIGS. 7B and 7C show the irradiated bowel in controls compared with FGF-P-treated Balb/c mice. The FGF-P was given at a dose of 2 mg/kg im for three daily doses beginning 15 min after irradiation. […]

[3] = Plasma endotoxin after sub-TBI (tachypleus amebocyte lysate kit); assay type: in vivo, mouse (Balb/c, C57BL/6); details: Balb/c, 10.5 Gy
Protocol: Some studies have employed bacterial culture of liver samples. Bacterial translocation occurs due to mucosal barrier changes (1) at the level of the basement membrane and (2) bowel mucous volume and composition. The most reliable and most clinically applicable method to measure bacterial translocation is the endotoxin assay. The level of plasma endotoxin 3.5 days post-IR was measured with a commercialized kit that utilized tachypleus amebocyte lysate to sensitively quantitate endotoxin at extremely low levels (<0.01 EU/ml); and 4) body weight (BW): poor nutrition and water absorption will result in reduced body weight. The rate and severity of weight loss, as well as the pace of body weight recovery, will be measured.
2) A standard scoring scale was used to evaluate stool formation (diarrhea). The bowel was extracted from the abdomen and visually inspected. Formed stool was easily distinguished from semi-solid and liquid stool as it passed from the ascending to descending colon. FIGS. 7B and 7C show the irradiated bowel in controls compared with FGF-P-treated Balb/c mice. The FGF-P was given at a dose of 2 mg/kg im for three daily doses beginning 15 min after irradiation. Animals were sacrificed 3.5 days after 10.5 Gy sub-TBI.

MCP-1, IL-6, TNFα = test: Plasma inflammatory molecules after sub-TBI (Luminex bead array); assay type: in vivo, mouse (Balb/c); details: Balb/c, 12 Gy sub-TBI
Protocol: Bead array technology has been developed to facilitate the study of cytokine expression profiles in normal tissues following radiation. Bead arrays have several advantages over ELISA. First, mice have a limited blood volume (0.3-0.4 ml of plasma/mouse). Each ELISA typically requires approximately 0.1 ml and thus only a limited number of assays are possible. Secondly, the time required to perform ELISAs one by one stresses the system in a large experiment and would be difficult to perform in the field in case of a radiological event. The Luminex bead array technology was used. The paired monoclonal antibodies, the highly-purified protein standards, and the more than 50 different cytokinespecific beads were purchased. In these studies, Balb/c mice received 12 Gy sub-TBI and then im injection of vehicle alone (0.2 ml of saline), FGF-P (2 mg/kg at 10 min post-IR and daily for two days), or Amifostine (200 mg/kg, either 30 min before IR, or 10 min after IR). The samples were collected 3.5 days after IR.
All three of these cytokines are associated with increased severity and progression of radiation-related inflammatory toxicity in mouse and man.

[4] = test system: proliferating crypts of small intestine; details: comparison stated for native FGFs; cited from earlier work
irradiated mice (AGS) = details: cited from earlier work; for dose of peak response: AGS, LD50/7 or crypt assay
Cdc42, Rac1, Mapk10, Cfl = test: Gene expression in irradiated BM cells (Luminex multiplex array); assay type: cell-based, mouse; details: treatment 20 min after 5 Gy IR, 6 hours, P<0.05
FGF receptor = details: cited from earlier work
[5] = test system: bovine aortic endothelial cells; details: in vitro; cited from earlier work
[6] = in animals; cited from earlier work

Compound | crypt survival [4] | dose of peak response (irradiated mice (AGS)) | binding to FGF receptor (FGF receptor) | downstream signaling (FGF receptor) | cell proliferation and radiation-induced apoptosis [5] | radio-protective effects [6] | further results
NCCCNCCSP(=O)(O)O [Amifostine] |  |  |  |  |  |  | crypt numbers in the ileum ([1]; 12 Gy, Amifostine given after irradiation): no effect when given after irradiation; crypt numbers in the ileum ([1]; 3.5 days after 12 Gy, Amifostine 200 mg/kg iv 30 min before sub-TBI): level of protection matched that obtained for Amifostine; stool hemoccult score [2]: reduced stool hemoccult score; plasma endotoxin level ([3]; Amifostine given after irradiation): 2.87 EU/ml; plasma endotoxin level (mean) ([3]; Amifostine iv 30 min before IR): 0.93 EU/ml; plasma MCP-1, IL-6 and TNFα (MCP-1, IL-6, TNFα; Amifostine 200 mg/kg 10 min after IR): no benefit; plasma MCP-1, IL-6 and TNFα (MCP-1, IL-6, TNFα; Amifostine 200 mg/kg 30 min before IR): beneficial response
FGF-1: acidic fibroblast growth factor, human protein | approximately doubles crypt survival | approximately 6 μg/mouse |  |  |  |  | 
FGF-2: basic fibroblast growth factor, native full length human protein | approximately doubles crypt survival | approximately 6 μg/mouse |  |  |  |  | expression of Cdc42 (Cdc42, Rac1, Mapk10, Cfl): reversed the IR-suppressed expression; expression of Cfl (cofilin 1) (Cdc42, Rac1, Mapk10, Cfl): suppressed towards normal; expression of Mapk10 (Cdc42, Rac1, Mapk10, Cfl): suppressed towards normal; expression of Rac1 (Cdc42, Rac1, Mapk10, Cfl): reversed the IR-suppressed expression; dose with benefit (irradiated mice (AGS); human FGF-2 in mice): 1 μg/mouse
RFHSWDCIKTWASDTFVLVCYDDGSEA [F2A3, synthetic peptide that mimics FGF-2] |  |  | equivalent to native bFGF | as effectively as bFGF | trigger cell proliferation and block radiation-induced apoptosis similar to bFGF | radio-protective effects similar to bFGF | 
YRSRKYSSWYVALKR [F2A4, synthetic peptide that mimics FGF-2] |  |  | equivalent to native bFGF | as effectively as bFGF | trigger cell proliferation and block radiation-induced apoptosis similar to bFGF | radio-protective effects similar to bFGF | 
